Measured values reported in patent US9663478B2, “Benzotriazine oxides as drugs targeting Mycobacterium tuberculosis” (priority 2011, dated 2017).
“Also recorded” adds a separate entry of the source.

How the values were obtained:
[1] = test system: mouse lymphoma cell tk+/−→tk−/− gene mutation; experiment: Mouse lymphoma cell tk+/−→tk−/− gene mutation (MOLY) assay; format: cell-based
Source text: A liability in developing any bioreductively-activated antimicrobial drug is the potential for mutagenicity. Because the basis for activity of these compounds is the generation of intermediate radical species, undesirable mutagenicity poses a risk, as has been documented for many classes of bioreductive drugs, including the BTO tirapazamine (TPZ).^19,20 The most convenient methodology for assessing the potential to induce genetic damage is to use the plate incorporation method with Salmonella typhimurium strains TA98 and TA100, commonly known as the Ames assay. The Salmonella tester strains have mutations in the histidine operon, a mutation that leads to defective lipopolysaccharide (rfa), and a deletion that covers genes involved in the synthesis of biotin (bio) and in the repair of ultraviolet-induced DNA damage (uvrB).^21,22 These mutations make the strains more permeable to many molecules and increase their susceptibility to the mutagenic effects of these molecules. Given that the hypothesized mechanism of the BTO compounds is to selectively form cytotoxic radical species in bacteria over mammalian cells, a microbial mutagenicity assay is not ideal, but was used to benchmark their activities in this assay. […] Individual plate counts and their means and standard deviations, along with the condition of the background lawn, are presented in SI Table 2.
Experiments were conducted using a standard procedure for evaluating mutagenic potential.^23,24 The details on cell line, experimental procedures and data interpretaion have been previously published.^54 The following endpoints were evaluated in cells following exposure to 15fa and 20q: cell growth during expression periods, relative suspension growth, relative total growth, relative cloning efficiency, mutation frequency, and numbers of small (≦0.6 mm in diameter) colonies from trifluorothymidine-resistant (TFT^r) cells.

[2] = test system: Staphylococcus aureus ATCC 29213; experiment: Spectrum of antimicrobial activity; format: cell-based

[O-][n+]1nc(N2CCCC2)[n+]([O-])c2cc3c(cc21)CCC3 [Compound 20q, 3-(pyrrolidin-1-yl)-7,8-dihydro-6H-indeno[5,6-e][1,2,4]triazine 1,4-dioxide]
Mutagenic potential in MOLY assay ([1]; 10 μg/mL, +S9, 4-Hr Exposure): Negative | Mutagenic potential in MOLY assay ([1]; 10 μg/mL, +S9, 24-Hr Exposure): Negative | Mutagenic potential in MOLY assay ([1]; 10 μg/mL, −S9, 4-Hr Exposure): Negative | Mutagenic potential in MOLY assay ([1]; 10 μg/mL, −S9, 24-Hr Exposure): Negative | Mutagenic potential in MOLY assay ([1]; 25 μg/mL, +S9, 4-Hr Exposure): Negative^a | Mutagenic potential in MOLY assay ([1]; 25 μg/mL, +S9, 24-Hr Exposure): Negative | Mutagenic potential in MOLY assay ([1]; 25 μg/mL, −S9, 4-Hr Exposure): Negative | Mutagenic potential in MOLY assay ([1]; 25 μg/mL, −S9, 24-Hr Exposure): Negative | Mutagenic potential in MOLY assay ([1]; 50 μg/mL, +S9, 4-Hr Exposure): Negative | Mutagenic potential in MOLY assay ([1]; 50 μg/mL, +S9, 24-Hr Exposure): Negative | Mutagenic potential in MOLY assay ([1]; 50 μg/mL, −S9, 4-Hr Exposure): Negative | Mutagenic potential in MOLY assay ([1]; 50 μg/mL, −S9, 24-Hr Exposure): Negative | Mutagenic potential in MOLY assay ([1]; 100 μg/mL, +S9, 4-Hr Exposure): Negative | Mutagenic potential in MOLY assay ([1]; 100 μg/mL, +S9, 24-Hr Exposure): Negative | Mutagenic potential in MOLY assay ([1]; 100 μg/mL, −S9, 4-Hr Exposure): Negative | Mutagenic potential in MOLY assay ([1]; 100 μg/mL, −S9, 24-Hr Exposure): Negative | mutation frequency in MOLY assay ([1]; presence or absence of S9, non-cytotoxic dose levels, up to 100 μg/mL for 20q): no mutagenic activity; also recorded: negative response for mutation frequency | Antimicrobial activity, Staphylococcus aureus [2]: >32 µg/mL
